The subject of the test is pERK1/2(THR202/TYR204) level in AsPC-1 cells. In words: pERK assay (HTRF) in AsPC-1 cell line. The class given is cell-based. As to conditions: Homo sapiens, ASPC1, 2 h, 2 h compound treatment. The essentials:
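AsPC-1 (KRAS G12D) cells, 30000/well, seeded overnight, then treated 2 h with a 10-point series at 0 to 10 μM final. Lysate pERK1/2 (Thr202/Tyr204) detected by HTRF after overnight antibody incubation at room temperature; IC50 from percent inhibition versus log concentration.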

As to `N#Cc1c(N)sc2c(F)ccc(-c3c(C(F)(F)F)cc4c(N5CC6CCC(C5)N6)nc(OCC5(F)COC5)nc4c3F)c12` [Example 44, 4-(4-(3,8-diazabicyclo[3.2.1]octan-3-yl)-8-fluoro-2-((3-fluorooxetan-3-yl)methoxy)-6-(trifluoromethyl)quinazolin-7-yl)-2-amino-7-fluorobenzo [b]thiophene-3-carbonitrile], the IC50 came to 211 nM.

On to `COC1(COc2nc(N3CC4CCC(C3)N4)c3cc(C(F)(F)F)c(-c4ccc(F)c5sc(N)c(C#N)c45)c(F)c3n2)CC1` [Example 45, 4-(4-(3,8-diazabicyclo[3.2.1]octan-3-yl)-8-fluoro-2-((1-methoxycyclopropyl)methoxy)-6-(trifluoromethyl)quinazolin-7-yl)-2-amino-7-fluorobenzo[b] thiophene-3-carbonitrile], for which it took 115 nM to reach half-maximal inhibition (IC50).

Take `CC1(COc2nc(N3CC4CCC(C3)N4)c3cc(C(F)(F)F)c(-c4ccc(F)c5sc(N)c(C#N)c45)c(F)c3n2)CN(c2ncco2)C1` [Example 46, 4-(4-(3,8-diazabicyclo[3.2.1]octan-3-yl)-8-fluoro-2-((3-methyl-1-(oxazol-2-yl)azetidin-3-yl)methoxy)-6-(trifluoromethyl)quinazolin-7-yl)-2-amino-7-fluorobenzo[b]thiophene-3-carbonitrile]: the IC50 was 222 nM.

In turn, `N#Cc1c(N)sc2c(F)ccc(-c3c(C(F)(F)F)cc4c(N5CC6CCC(C5)N6)nc(OCC56COC(COC7CC7)(C5)C6)nc4c3F)c12` [Example 47, 4-(4-(3,8-diazabicyclo[3.2.1]octan-3-yl)-2-((1-(cyclopropoxymethyl)-2-oxabicyclo[2.1.1]hexan-4-yl)methoxy)-8-fluoro-6-(trifluoromethyl)quinazolin-7-yl)-2-amino-7-fluorobenzo[b]thiophene-3-carbonitrile] gave a half-inhibitory concentration (IC50) of 154 nM.

`N#Cc1c(N)sc2c(F)ccc(-c3c(C(F)(F)F)cc4c(N5CC6CCC(C5)N6)nc(OCC5(C#N)COC5)nc4c3F)c12` [Example 49, 3-(((7-(2-amino-3-cyano-7-fluorobenzo[b]thiophen-4-yl)-4-(3,8-diazabicyclo[3.2.1]octan-3-yl)-8-fluoro-6-(trifluoromethyl)quinazolin-2-yl)oxy)methyl)oxetane-3-carbonitrile]: the IC50 was 103 nM.

`N#Cc1c(N)sc2c(F)ccc(-c3c(C(F)(F)F)cc4c(N5CC6CCC(C5)N6)nc(OCC5(CO)CCOCC5)nc4c3F)c12` [Example 50, 4-(4-(3,8-diazabicyclo[3.2.1]octan-3-yl)-8-fluoro-2-((4-(hydroxymethyl)tetrahydro-2H-pyran-4-yl)methoxy)-6-(trifluoromethyl)quinazolin-7-yl)-2-amino-7-fluorobenzo[b]thiophene-3-carbonitrile] showed a half-maximal inhibitory concentration (IC50) of 193 nM.

Regarding `N#CCC1(COc2nc(N3CC4CCC(C3)N4)c3cc(C(F)(F)F)c(-c4ccc(F)c5sc(N)c(C#N)c45)c(F)c3n2)COC1` [Example 51, 4-(4-(3,8-diazabicyclo[3.2.1]octan-3-yl)-2-((3-(cyanomethyl)oxetan-3-yl)methoxy)-8-fluoro-6-(trifluoromethyl)quinazolin-7-yl)-2-amino-7-fluoro benzo[b]thiophene-3-carbonitrile], the IC50 came to 142 nM.

`CCc1cc2c(N3CC4CCC(C3)N4)nc(OCC34COC(C)(C3)C4)nc2c(F)c1-c1ccc(F)c2sc(N)c(C#N)c12` [Example 52, 4-(4-(3,8-diazabicyclo[3.2.1]octan-3-yl)-6-ethyl-8-fluoro-2-((1-methyl-2-oxabicyclo[2.1.1]hexan-4-yl)methoxy)quinazolin-7-yl)-2-amino-7-fluorobenzo[b]thiophene-3-carbonitrile] had a half-inhibitory concentration (IC50) of 235 nM.

`N#Cc1c(N)sc2c(F)ccc(-c3c(C(F)(F)F)cc4c(N5CC6CCC(C5)N6)nc(OCC5(CF)COC5)nc4c3F)c12` [Example 53, 4-(4-(3,8-diazabicyclo[3.2.1]octan-3-yl)-8-fluoro-2-((3-(fluoromethyl)oxetan-3-yl)methoxy)-6-(trifluoromethyl)quinazolin-7-yl)-2-amino-7-fluoro benzo[b]thiophene-3-carbonitrile] had an IC50 of 33 nM.

The compound `Cn1ccnc1N1CC(C)(COc2nc(N3CC4CCC(C3)N4)c3cc(C(F)(F)F)c(-c4ccc(F)c5sc(N)c(C#N)c45)c(F)c3n2)C1` [Example 54, 4-(4-(3,8-diazabicyclo[3.2.1]octan-3-yl)-8-fluoro-2-((3-methyl-1-(1-methyl-1H-imidazol-2-yl)azetidin-3-yl)methoxy)-6-(trifluoromethyl)quinazolin-7-yl)-2-amino-7-fluorobenzo[b]thiophene-3-carbonitrile] had a half-inhibitory concentration (IC50) of 32 nM.

In turn, `CC1(COc2nc(N3CC4CCC(C3)N4)c3cc(C(F)(F)F)c(-c4ccc(F)c5sc(N)c(C#N)c45)c(F)c3n2)CC2(COC2)C1` [Example 55, 4-(4-(3,8-diazabicyclo[3.2.1]octan-3-yl)-8-fluoro-2-((6-methyl-2-oxaspiro[3.3]heptan-6-yl)methoxy)-6-(trifluoromethyl)quinazolin-7-yl)-2-amino-7-fluorobenzo[b]thiophene-3-carbonitrile] came in with an IC50 of 332 nM.

`COCC12CC(COc3nc(N4CC5CCC(C4)N5)c4cc(C(F)(F)F)c(-c5ccc(F)c6sc(N)c(C#N)c56)c(F)c4n3)(C1)C(C)(C)O2` [Example 56, 4-(4-(3,8-diazabicyclo[3.2.1]octan-3-yl)-8-fluoro-2-((1-(methoxymethyl)-3,3-dimethyl-2-oxabicyclo[2.1.1]hexan-4-yl)methoxy)-6-(trifluoromethyl)quinazolin-7-yl)-2-amino-7-fluorobenzo[b]thiophene-3-carbonitrile] showed an IC50 of 109 nM.

In turn, `N#Cc1c(N)sc2c(F)ccc(-c3c(C(F)(F)F)cc4c(N5CC6CCC(C5)N6)nc(OCC5(CO)COC5)nc4c3F)c12` [Example 57, 4-(4-(3,8-diazabicyclo[3.2.1]octan-3-yl)-8-fluoro-2-((3-(hydroxymethyl)oxetan-3-yl)methoxy)-6-(trifluoromethyl)quinazolin-7-yl)-2-amino-7-fluorobenzo[b]thiophene-3-carbonitrile] registered an IC50 of 294 nM.

Source of the values: US20250221996A1, “HETEROCYCLIC COMPOUNDS, COMPOSITIONS THEREOF, AND METHODS OF TREATMENT THEREWITH” (BeiGene, Ltd., priority 2022, published 2025).
